From article PMC12716025, “Plectranthus‐derived Abietanes as Protein Kinase C‐δ Activators: In Silico Design, Human Serum Albumin Interaction, and Stability Evaluation” (Chemistry & Biodiversity, 2025)

Target: T1, Human serum albumin (HSA) (Homo sapiens, UniProt P02768)
T1 construct: gene ALB; Essentially fatty acid-free HSA, type A1887 (Sigma-Aldrich)
Assay: intrinsic tryptophan fluorescence quenching (binding constant Ka, […]°C), synchronous fluorescence, thermal shift (Tm +[…]°C)

T1 sequence (P02768 25-609): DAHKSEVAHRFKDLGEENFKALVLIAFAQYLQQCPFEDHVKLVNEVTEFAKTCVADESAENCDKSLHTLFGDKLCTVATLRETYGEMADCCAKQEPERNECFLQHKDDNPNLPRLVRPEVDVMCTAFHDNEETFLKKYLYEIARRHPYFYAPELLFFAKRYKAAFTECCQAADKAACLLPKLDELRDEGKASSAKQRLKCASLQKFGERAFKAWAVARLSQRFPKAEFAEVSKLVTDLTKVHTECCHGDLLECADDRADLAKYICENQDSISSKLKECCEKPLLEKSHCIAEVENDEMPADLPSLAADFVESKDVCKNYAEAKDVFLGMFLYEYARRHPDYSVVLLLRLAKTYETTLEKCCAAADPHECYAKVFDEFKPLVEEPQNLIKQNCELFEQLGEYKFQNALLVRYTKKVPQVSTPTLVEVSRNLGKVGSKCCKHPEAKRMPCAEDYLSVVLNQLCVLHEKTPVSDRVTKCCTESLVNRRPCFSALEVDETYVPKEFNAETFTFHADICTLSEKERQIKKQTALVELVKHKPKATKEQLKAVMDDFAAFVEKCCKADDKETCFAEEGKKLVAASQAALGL

CC(=O)O[C@H]1C2=C(C(=O)C(O)=C(C(C)C)C2=O)[C@@]2(C)CCCC(C)(C)[C@@H]2[C@@H]1O [compound 1, 7α-acetoxy-6β-hydroxyroyleanone]
Kd: 15.4 µM
